Several values for one entry are separate records, joined by “and”; a condition that tells them apart may be missing. Equal entries are not always repeated.
Legend:
[1] = target: T1, YCF1 (vacuolar membrane vesicles purified from DTY165 cells) (Saccharomyces cerevisiae, UniProt P39109); test: [3H]DNP-GS uptake by vacuolar membrane vesicles purified from DTY165 cells; assay type: biochemical
T1 construct: endogenous in cells; host or cells: S. cerevisiae DTY165 (wild type YCF1), vacuolar membrane vesicles
How it was run: (§1)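 ATP-dependent [3H]DNP-GS (66.2 μM) transport measured by filtration and scintillation counting of Ficoll-purified yeast vacuolar vesicles (DTY165 wild type; DTY167 ycf1Δ), 1–60 min at 25 °C in sorbitol/Tris-Mes pH 8.0 with 3 mM ATP, 3 mM MgSO4 and gramicidin-D. Nonenergized uptake without ATP/Mg2+.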

[2] = tested on: vacuolar membrane vesicles purified from DTY167 cells (ycf1Δ mutant); assay type: biochemical, Saccharomyces cerevisiae; conditions: 5 μM gramicidin D, GSH, GSSG 1 mM, GS-conjugates 100 μM
How it was run: as §1

DTY167 cells = test: Fluorescence microscopy of vacuolar bimane-GS accumulation, DTY167 cells; assay type: cell-based, Saccharomyces cerevisiae; conditions: 100 μM monochlorobimane, 6 hours
Method: (§2) Cells were grown in YPD medium for 24 hours at 30° C. to an OD600 nm of approximately 1.4, and 100 μl aliquots of the suspensions were transferred to 15 ml volumes of fresh YPD medium containing 100 μM syn-(ClCH2,CH3)-1,5-diazabicyclo-[3.3.0]-[…] (monochlorobimane) (Kosower et al., 1980, J Am. Chem. Soc. 102:4983-4993). After incubation for 6 hours, the cells were pelleted by centrifugation, washed twice with YPD medium lacking monochlorobimane, and viewed without fixation under an Olympus BH-2 fluorescence microscope equipped with a BP-490 UV excitation filter, AFC-0515 barrier filter, and Nomarski optics attachment.

DTY165 cells = test: Fluorescence microscopy of vacuolar bimane-GS accumulation, DTY165 cells; assay type: cell-based, Saccharomyces cerevisiae; conditions: 100 μM monochlorobimane, 6 hours
Method: as §2

[3] = substrate: N[C@@H](CCC(=O)N[C@@H](CSSC[C@H](NC(=O)CC[C@H](N)C(=O)O)C(=O)NCC(=O)O)C(=O)NCC(=O)O)C(=O)O; test: cells, lysate or membranes; conditions: other: MgATP-dependent, uncoupler-insensitive; pH 8.0
[4] = substrate: N[C@@H](CCC(=O)N[C@@H](CSc1ccc([N+](=O)[O-])cc1[N+](=O)[O-])C(=O)NCC(=O)O)C(=O)O; test: AtMRP1-dependent uptake by membrane vesicles from pYES3-AtMRP1-transformed DTY168 cells; assay type: biochemical, Arabidopsis thaliana; conditions: other: MgATP-dependent, uncoupler-insensitive; pH 8.0

T1 sequence (P39109 whole entry): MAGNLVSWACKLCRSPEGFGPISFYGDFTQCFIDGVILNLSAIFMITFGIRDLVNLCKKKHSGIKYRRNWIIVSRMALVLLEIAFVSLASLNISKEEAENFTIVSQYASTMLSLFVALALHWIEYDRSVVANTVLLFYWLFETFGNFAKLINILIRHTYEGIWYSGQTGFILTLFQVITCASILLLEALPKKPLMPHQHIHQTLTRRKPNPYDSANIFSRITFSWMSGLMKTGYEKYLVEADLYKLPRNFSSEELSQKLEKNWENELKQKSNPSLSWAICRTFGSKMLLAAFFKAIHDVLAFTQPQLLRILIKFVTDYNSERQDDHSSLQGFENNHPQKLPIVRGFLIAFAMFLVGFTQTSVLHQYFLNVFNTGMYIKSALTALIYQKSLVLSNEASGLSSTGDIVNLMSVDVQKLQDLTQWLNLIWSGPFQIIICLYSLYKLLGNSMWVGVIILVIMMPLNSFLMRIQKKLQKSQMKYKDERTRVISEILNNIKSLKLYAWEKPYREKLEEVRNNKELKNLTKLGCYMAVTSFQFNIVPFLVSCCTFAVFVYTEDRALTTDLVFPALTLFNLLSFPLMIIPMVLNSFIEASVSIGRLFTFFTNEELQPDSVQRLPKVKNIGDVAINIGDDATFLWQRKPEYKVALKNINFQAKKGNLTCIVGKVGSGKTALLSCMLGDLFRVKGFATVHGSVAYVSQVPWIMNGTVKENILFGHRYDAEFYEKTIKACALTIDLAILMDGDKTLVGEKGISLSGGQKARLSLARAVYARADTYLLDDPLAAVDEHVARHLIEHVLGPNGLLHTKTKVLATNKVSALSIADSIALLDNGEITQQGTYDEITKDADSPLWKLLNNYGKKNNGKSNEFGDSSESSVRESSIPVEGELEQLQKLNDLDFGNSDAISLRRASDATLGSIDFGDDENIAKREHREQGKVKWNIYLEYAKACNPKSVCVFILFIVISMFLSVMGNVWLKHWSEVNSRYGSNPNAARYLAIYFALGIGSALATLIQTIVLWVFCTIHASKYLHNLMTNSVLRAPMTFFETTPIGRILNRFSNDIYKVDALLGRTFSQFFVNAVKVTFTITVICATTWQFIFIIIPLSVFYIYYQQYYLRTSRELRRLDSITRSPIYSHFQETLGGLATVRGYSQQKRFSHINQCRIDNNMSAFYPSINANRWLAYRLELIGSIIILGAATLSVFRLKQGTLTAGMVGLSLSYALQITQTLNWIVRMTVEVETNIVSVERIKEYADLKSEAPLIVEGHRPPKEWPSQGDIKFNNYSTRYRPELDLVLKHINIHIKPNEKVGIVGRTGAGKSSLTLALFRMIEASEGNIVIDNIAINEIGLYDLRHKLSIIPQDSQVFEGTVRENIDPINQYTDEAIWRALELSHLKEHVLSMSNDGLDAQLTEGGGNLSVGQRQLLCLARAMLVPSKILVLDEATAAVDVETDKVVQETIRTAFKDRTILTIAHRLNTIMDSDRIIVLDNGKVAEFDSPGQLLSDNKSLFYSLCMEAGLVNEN

## Cc1c(C)n2c(CSC[C@H](NC(=O)CC[C@H](N)C(=O)O)C(=O)NCC(=O)O)c(C)c(=O)n2c1=O [Bimane-GS]
[1]; 5 μM gramicidin D, GSH, GSSG 1 mM, GS-conjugates 100 μM
  MgATP-dependent, uncoupler-insensitive DNP-GS uptake plus compound: 25.2 ± 1.1 nmol/mg/10 minutes
[1]; 5 μM gramicidin D, GSH, GSSG 1 mM, GS-conjugates 100 μM, 10 min
  MgATP-dependent, uncoupler-insensitive DNP-GS uptake as percentage of control: 52.6%
[1]; 100 μM compound
  inhibition at 100 µM: ~50%
[2]
  MgATP-dependent, uncoupler-insensitive DNP-GS uptake plus compound: 4.5 ± 0.4 nmol/mg/10 minutes
[2]; 10 min
  MgATP-dependent, uncoupler-insensitive DNP-GS uptake as percentage of control: 69.2%
DTY167 cells
  vacuolar fluorescence (bimane-GS): severely attenuated

## Cc1c(C)n2c(CCl)c(C)c(=O)n2c1=O [monochlorobimane, syn-(ClCH2,CH3)-1,5-diazabicyclo-[3.3.0]-octa-3,6-dione-2,8-dione]
DTY165 cells
  vacuolar fluorescence (bimane-GS): intense punctate fluorescence

B1: AtMRP1 (Arabidopsis thaliana) (protein)
chain: MGFEPLDWYCKPVPNGVWTKTVDYAFGAYTPCAIDSFVLGISHLVLLILCLYRLWLITKDHKVDKFCLRSKWFSYFLALLAAYATAEPLFRLVMRISVLDLDGAGFPPYEAFMLVLEAFAWGSALVMTVVETKTYIHELRWYVRFAVIYALVGDMVLLNLVLSVKEYYGSFKLYLYISEVAVQVAFGTLLFVYFPNLDPYPGYTPVGTENSEDYEYEELPGGENICPERHANLFDSIFFSWLNPLMTLGSKRPLTEKDVWHLDTWDKTETLMRSFQKSWDKELEKPKPWLLRALNNSLGGRFWWGGFWKIGNDCSQFVGPLLLNELLKSMQLNEPAWIGYIYAISIFVGVVLGVLCEAQYFQNVMRVGYRLRSALIAAVFRKSLRLTNEGRKKFQTGKITNLMTTDAESLQQICQSLHTMWSAPFRIIVALVLLYQQLGVASIIGALFLVLMFPIQTVIISKTQKLTKEGLQRTDKRIGLMNEVLAAMDTVKCYAWENSFQSKVQTVRDDELSWFRKAQLLSAFNMFILNSIPVLVTVVSFGVFSLLGGDLTPARAFTSLSLFSVLRFPLFMLPNIITQMVNANVSLNRLEEVLSTEERVLLPNPPIEPGQPAISIRNGYFSWDSKADRPTLSNINLDIPLGSLVAVVGSTGEGKTSLISAMLGELPARSDATVTLRGSVAYVPQVSWIFNATVRDNILFGAPFDQEKYERVIDVTALQHDLELLPGGDLTEIGERGVNISGGQKQRVSMARAVYSNSDVCILDDPLSALDAHVGQQVFEKCIKRELGQTTRVLVTNQLHFLSQVDKILLVHEGTVKEEGTYEELCHSGPLFQRLMENAGKVEDYSEENGEAEVDQTSVKPVENGNANNLQKDGIETKNSKEGNSVLVKREERETGVVSWKVLERYQNALGGAWVVMMLVICYVLTQVFRVSSSTWLSEWTDSGTPKTHGPLFYNIVYALLSFGQVSVTLINSYWLIMSSLYAAKKMHDAMLGSILRAPMVFFQTNPLGRIINRFAKDMGDIDRTVAVFVNMFMGSIAQLLSTVILIGIVSTLSLWAIMPLLVVFYGAYLYYQNTSREIKRMDSTTRSPVYAQFGEALNGLSSIRAYKAYDRMAEINGRSMDNNIRFTLVNMAANRWLGIRLEVLGGLMVWLTASLAVMQNGKAANQQAYASTMGLLLSYALSITSSLTAVLRLASLAENSLNSVERVGNYIEIPSEAPLVIENNRPPPGWPSSGSIKFEDVVLRYRPELPPVLHGVSFLISPMDKVGIVGRTGAGKSSLLNALFRIVELEKGRILIDECDIGRFGLMDLRKVLGIIPQAPVLFSGTVRFNLDPFSEHNDADLWESLERAHLKDTIRRNPLGLDAEVTEAGENFSVGQRQLLSLARALLRRSKILVLDEATAAVDVRTDVLIQKTIREEFKSCTMLIIAHRLNTIIDCDKVLVLDSGKVQEFSSPENLLSNGESSFSKMVQSTGTANAEYLRSITLENKRTREANGDDSQPLEGQRKWQASSRWAAAAQFALAVSLTSSHNDLQSLEIEDDNSILKKTKDAVVTLRSVLEGKHDKEIEDSLNQSDISRERWWPSLYKMVEGLAVMSRLARNRMQHPDYNLEGKSFDWDNVEM
notes: S. cerevisiae DTY168 (ycf1 null) vacuolar-enriched membrane vesicles
[3]
  Km: 219 µM
[4]
  Km: 48.7 ± 15.4 µM and 73.8 µM and 49.7 ± 15.4 µM

B2: AtMRP2 (Arabidopsis thaliana) (protein)
chain: MGFEFIEWYCKPVPNGVWTKQVANAFGAYTPCATDSFVLGISQLVLLVLCLYRIWLALKDHKVERFCLRSRLYNYFLALLAAYATAEPLFRLIMGISVLDFDGPGLPPFEAFGLGVKAFAWGAVMVMILMETKIYIRELRWYVRFAVIYALVGDMVLLNLVLSVKEYYSSYVLYLYTSEVGAQVLFGILLFMHLPNLDTYPGYMPVRSETVDDYEYEEISDGQQICPEKHANIFDKIFFSWMNPLMTLGSKRPLTEKDVWYLDTWDQTETLFTSFQHSWDKELQKPQPWLLRALNNSLGGRFWWGGFWKIGNDCSQFVGPLLLNQLLKSMQEDAPAWMGYIYAFSIFVGVVFGVLCEAQYFQNVMRVGYRLRSALIAAVFRKSLRLTNEGRRKFQTGKITNLMTTDAESLQQICQSLHTMWSAPFRIIIALILLYQQLGVASLIGALLLVLMFPLQTVIISKMQKLTKEGLQRTDKRIGLMNEVLAAMDTVKCYAWENSFQSKVQTVRDDELSWFRKSQLLGALNMFILNSIPVLVTIVSFGVFTLLGGDLTPARAFTSLSLFAVLRFPLFMLPNIITQVVNANVSLKRLEEVLATEERILLPNPPIEPGEPAISIRNGYFSWDSKGDRPTLSNINLDVPLGSLVAVVGSTGEGKTSLISAILGELPATSDAIVTLRGSVAYVPQVSWIFNATVRDNILFGSPFDREKYERAIDVTSLKHDLELLPGGDLTEIGERGVNISGGQKQRVSMARAVYSNSDVYIFDDPLSALDAHVGQQVFEKCIKRELGQKTRVLVTNQLHFLSQVDRIVLVHEGTVKEEGTYEELSSNGPLFQRLMENAGKVEEYSEENGEAEADQTAEQPVANGNTNGLQMDGSDDKKSKEGNKKGGKSVLIKQEERETGVVSWRVLKRYQDALGGAWVVMMLLLCYVLTEVFRVTSSTWLSEWTDAGTPKSHGPLFYNLIYALLSFGQVLVTLTNSYWLIMSSLYAAKKLHDNMLHSILRAPMSFFHTNPLGRIINRFAKDLGDIDRTVAVFVNMFMGQVSQLLSTVVLIGIVSTLSLWAIMPLLVLFYGAYLYYQNTAREVKRMDSISRSPVYAQFGEALNGLSTIRAYKAYDRMADINGRSMDNNIRFTLVNMGANRWLGIRLETLGGLMIWLTASFAVMQNGRAENQQAFASTMGLLLSYALNITSLLTGVLRLASLAENSLNAVERVGNYIEIPPEAPPVIENNRPPPGWPSSGSIKFEDVVLRYRPQLPPVLHGVSFFIHPTDKVGIVGRTGAGKSSLLNALFRIVEVEKGRILIDDCDVGKFGLMDLRKVLGIIPQSPVLFSGTVRFNLDPFGEHNDADLWESLERAHLKDTIRRNPLGLDAEVSEAGENFSVGQRQLLSLSRALLRRSKILVLDEATAAVDVRTDALIQKTIREEFKSCTMLIIAHRLNTIIDCDKILVLDSGRVQEFSSPENLLSNEGSSFSKMVQSTGAANAEYLRSLVLDNKRAKDDSHHLQGQRKWLASSRWAAAAQFALAASLTSSHNDLQSLEIEDDSSILKRTNDAVVTLRSVLEGKHDKEIAESLEEHNISREGWLSSLYRMVEGLAVMSRLARNRMQQPDYNFEGNTFDWDNVEM
[3]
  Km: 73.0 ± 15.1 µM
